The nature of this data set: gradient 5% acetonitrile 3 min, to 50% in 2 min, to 85% in 15 min, held 3 min, 100 µL/min. The conditions noted are these: column: Zorbax Extend-C18 2.1 x 50 mm; eluents: water / acetonitrile, 0.1% formic acid. Put shortly: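 In both positive and negative ionization mode, a quadrupole time-of-flight mass spectrometer coupled to HPLC analyzed pure standards run in mixtures of ~100 molecules. The Zorbax Extend-C18 column (2.1 × 50 mm, 1.8 μm) was operated at 100 μL/min with water and acetonitrile, each containing 0.1% formic acid. The dead volume was 40 μL and the dwell volume 900 μL. Retention time came from adduct peaks that were computationally picked and individually inspected by hand.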
`O=c1cc(N2CCOCC2)oc2c(-c3cccc4c3sc3ccccc34)cccc12` returned an RP-LC retention time of 1190 s.

`COc1ccc(OCC2c3cc(OC)c(OC)cc3CCN2C(=O)c2cccc(Cl)c2)cc1` (stereo not given) came in with an RP-LC retention time of 1120 s.

Regarding `Cc1ccc(-n2c(=O)c3sccc3n(Cc3nc(-c4cccc(Br)c4)no3)c2=O)cc1`, the RP-LC retention time was 1110 s.

Molecule `CC(=O)Cc1nsc(NC(=O)c2ccc(C(C)(C)C)cc2)n1` displayed an RP-LC retention time of 874 s.

On to `CCCNC(=O)c1cnn2c3c(cnc12)CCCCCC3`, for which the RP-LC retention time is 976 s.

`CCn1cc(CCN2CCN(S(=O)(=O)c3ccc(C)c(F)c3)CC2)c2cccnc21` yielded an RP-LC retention time of 677 s.

In the case of `Cn1cnnc1SCCNC(=O)Cc1csc(Nc2ncccn2)n1`, the RP-LC retention time was 564 s.

For `O=C1c2ccccc2C(=O)N1CC(=O)N(Cc1ccccc1)c1cccc([N+](=O)[O-])c1`, the RP-LC retention time was 916 s.

Turning to `C=CCn1nc2ccc(S(=O)(=O)N3CCSCC3)cn2c1=O`, the RP-LC retention time amounted to 744 s.

In turn, `CCOc1ccc(CNS(=O)(=O)c2cc(C(=O)N3CCCC3)n(C)c2C)cc1` had an RP-LC retention time of 771 s.

Consider `CN1CCCc2cc(C(=O)NCc3ccc(F)cc3)sc21`, for which the RP-LC retention time was 906 s.

Take `c1cnc(N2CCN(Cc3ccc4c(c3)OCO4)CC2)nc1`: the RP-LC retention time worked out at 432 s.

As to `O=C(NCc1ccc(F)cc1)c1ccc2c(cnn2CC(=O)N2CCCCCC2)c1`, the RP-LC retention time worked out at 951 s.

The molecule `COc1ccc(CNC(=O)CCC2CCN(c3cc(NC4CC4)ncn3)CC2)cc1` registered an RP-LC retention time of 645 s.

In turn, `CCN1C(=O)C2(CCN(S(=O)(=O)CC)CC2)c2ccccc21` came in with an RP-LC retention time of 774 s.

`COc1cc(NC(=O)CN2C(=O)CCc3cc(Br)ccc32)cc(OC)c1OC`: the RP-LC retention time was 820 s.

Turning to `CC1CCCCN1CCCNC(=O)C1CCCN(c2ncnc3c2nc2n3CCCCC2)C1` (stereo not given), the RP-LC retention time is 589 s.

Molecule `COCCN(CCNC(=O)C1Cn2cccc2C(=O)N1C)Cc1ccco1` (stereo not given) registered an RP-LC retention time of 569 s.

As to `COc1cccc(-c2ccc(=O)n(CCc3nc(-c4cccc(OC)c4OC)no3)n2)c1`, the RP-LC retention time worked out at 921 s.

Molecule `COc1ccc(OC)c(NC(=O)C2CCN(S(=O)(=O)c3ccc4c(c3)NC(=O)C(C)O4)CC2)c1` (stereo not given) registered an RP-LC retention time of 856 s.

For the molecule `COc1ccc(C(=O)N2CC(n3cc(COCC4CC4)nn3)C2)cn1`, the RP-LC retention time stood at 679 s.

For the molecule `CC(=O)c1cccc(NC(=O)c2cnc(-c3ccccc3)nc2-c2ccncc2)c1`, the RP-LC retention time was determined as 800 s.

Take `Cc1c(C(=O)NCc2cccnc2)oc2c1C(=O)CC(C)(C)C2`: the RP-LC retention time was 560 s.

`COc1cc(-c2nc(-c3ccc4c(c3)nnn4C)no2)cc(OC)c1OC` registered an RP-LC retention time of 937 s.

Consider `CCn1c(=O)c(C)nc2cc(-c3noc(C4CC(=O)N(c5cccc(Cl)c5)C4)n3)ccc21` (stereo not given), for which the RP-LC retention time was determined as 966 s.

As to `Cc1nn(C(C)C(=O)NC2CCC(C)CC2)c(=O)c2nn(-c3ccccc3)c(C)c12` (stereo not given), the RP-LC retention time is 962 s.

Molecule `COc1ccc2c(c1)-c1nc(NC(=O)c3ccc(F)cc3)sc1CC2` had an RP-LC retention time of 1140 s.

Molecule `COc1ccc(-c2cc(N3CCN(C(=O)NC(C)C)CC3)ncn2)cc1OC` had an RP-LC retention time of 602 s.

For `Cc1ccnc(N2CCCC(C(=O)NCCSCc3ccco3)C2)n1` (stereo not given), the RP-LC retention time worked out at 709 s.

Molecule `COc1ccc(-c2nc(CSc3nc4ccccc4n4c(C)nnc34)c(C)o2)cc1` came in with an RP-LC retention time of 854 s.

Molecule `COc1cccc(NC(=O)Nc2cc3c(cc2Oc2ccccc2)n(C)c(=O)n3C)c1` came in with an RP-LC retention time of 804 s.

Molecule `COc1cccc(-c2noc(CCn3nc(-c4ccc(Cl)cc4)ccc3=O)n2)c1OC` gave an RP-LC retention time of 1010 s.

Molecule `Cc1ccc(C2=NC3(CCN(C(=O)c4ccsc4)CC3)ON2)cc1` showed an RP-LC retention time of 737 s.

`Cc1ccccc1S(=O)(=O)N1CCCC(CCC(=O)O)C1` (stereo not given) yielded an RP-LC retention time of 774 s.

For the molecule `O=C(COc1cccc(C(F)(F)F)c1)Nc1cc(N2CCOCC2)ncn1`, the RP-LC retention time turned out to be 775 s.

On to `CCc1ccc(S(=O)(=O)N2CCC(c3noc(-c4cccc(OC)c4)n3)CC2)cc1`, for which the RP-LC retention time came out at 1240 s.

In turn, `CC1CCN(C(=O)c2ccc(OCC3CCN(C(=O)c4ccc(C#N)cc4)CC3)cc2)CC1` gave an RP-LC retention time of 957 s.

Take `Cc1nc(-c2cc(S(=O)(=O)NCCCN3CCCC(C)C3)c(C)s2)sc1C` (stereo not given): the RP-LC retention time came out at 704 s.

`Cc1ccc(-c2noc(CCn3nc(-c4ccc5c(c4)OCO5)ccc3=O)n2)cc1`: the RP-LC retention time is 968 s.

On to `CC(=O)N1CCCn2nc(-c3cccc(F)c3)cc2C1`, for which the RP-LC retention time came out at 722 s.

In turn, `CN(Cc1ccccc1)C(=O)C1CCCN(c2ncnc3c2nc2n3CCCCC2)C1` (stereo not given) yielded an RP-LC retention time of 758 s.

For `CCN1C(=O)c2cccc3c(NC(=O)c4cccs4)ccc1c23`, the RP-LC retention time amounted to 731 s.

On to `Cc1ccc(CNC(=O)C2(C)CCCN(C(=O)Nc3ccc(F)c(Cl)c3)C2)cc1` (stereo not given), for which the RP-LC retention time was found to be 1030 s.

`Cc1[nH]c(C)c(S(=O)(=O)N2CCC(C(=O)NC3CCCCCCC3)CC2)c1C(=O)N1CCCC1`: the RP-LC retention time is 745 s.

On to `COc1ccc(NC(=O)CSc2nnc(CNC(=O)c3cccs3)o2)c(OC)c1`, for which the RP-LC retention time stood at 614 s.

Molecule `Cc1ccc(-c2csc(Cc3nc(-c4ccc(F)cc4)no3)n2)c(C)c1` had an RP-LC retention time of 1070 s.

Molecule `Cc1nc(-c2csc(S(=O)(=O)N3CCC(C(=O)NC4CCCCC4)CC3)c2)no1` yielded an RP-LC retention time of 879 s.

As for `O=C(CCC1CCN(c2cc(NC3CC3)ncn2)CC1)NCc1ccccn1`, the RP-LC retention time came out at 541 s.

`CC1CCN(C(=O)c2cn(CC3CCCO3)cc3c(=O)n(-c4ccccc4)nc2-3)CC1` (stereo not given): the RP-LC retention time stood at 766 s.

Consider `COc1ccc(C(CNC(=O)c2cc(=O)c3cc(C)c(C)cc3o2)N(C)C)cc1` (stereo not given), for which the RP-LC retention time worked out at 644 s.

With `CC1CCCN(C(=O)CN2CCN(C)CC2)C1` (stereo not given), the RP-LC retention time is 536 s.

As to `O=C(Nc1ccc(F)cc1F)N1CCCC(Cn2c(C3CC3)nc3cccnc32)C1` (stereo not given), the RP-LC retention time came out at 668 s.

For the molecule `Cn1cnc(S(=O)(=O)N2CCC(C(=O)NCc3ccccc3Cl)CC2)c1`, the RP-LC retention time is 695 s.

In the case of `O=C1CC(c2noc(-c3ccc(OC(F)(F)F)cc3)n2)CN1c1ccc(F)cc1` (stereo not given), the RP-LC retention time came to 1040 s.

In turn, `CC(=O)CC(=O)Nc1ccc(Cl)c(C(F)(F)F)c1` came in with an RP-LC retention time of 831 s.

On to `Cc1cc(C)cc(NC(=O)N2CCC(n3cnc4ccc(F)cc4c3=O)CC2)c1`, for which the RP-LC retention time was determined as 861 s.

In turn, `CCCc1cc(N2CCN(C(=O)COc3ccccc3)CC2)nc2nncn12` registered an RP-LC retention time of 640 s.

`Cc1ccc(CC(=O)Nc2cc(-c3cccs3)no2)cc1` showed an RP-LC retention time of 993 s.

`Cc1ccc(N2CCN(C(=O)c3cn(-c4cc(N5CCSCC5)ncn4)cn3)CC2)cc1` had an RP-LC retention time of 916 s.

For `Cc1ccc(S(=O)(=O)N2CCc3nc(NC(=O)c4ccnn4C)sc3C2)cc1`, the RP-LC retention time turned out to be 860 s.

`O=C(CN1C(=O)CSCC1=O)Nc1ccc2c(c1)OCO2`: the RP-LC retention time is 638 s.

`CCOC(=O)c1c(C)oc2nc(C)nc(NCc3cccc(Cl)c3)c12`: the RP-LC retention time turned out to be 1330 s.

Molecule `Clc1cccc(-c2nc3ccccn3c2Nc2ccc3c(c2)OCCO3)c1` showed an RP-LC retention time of 715 s.

The molecule `COc1cc2nc(C(=O)N3CCCCC3)cc(Nc3ccc(F)c(Cl)c3)c2cc1OC` displayed an RP-LC retention time of 735 s.

With `O=C(NCc1ccccn1)C1CN(C(=O)c2c[nH]c3ccccc23)C1`, the RP-LC retention time was found to be 541 s.

In the case of `CCc1ccc(CNC(=O)Cn2cc(-c3nnco3)c3ccccc32)cc1`, the RP-LC retention time is 866 s.

For `CCn1cnc(S(=O)(=O)N2CCCC(C(=O)NCc3ccccc3)C2)c1` (stereo not given), the RP-LC retention time was determined as 768 s.

Molecule `Cc1ccc(Nc2c(-c3cccc(Br)c3)nc3c(C)cccn23)cc1` returned an RP-LC retention time of 843 s.

Consider `CC(=O)N1CCc2[nH]c3ccc(C(=O)NCc4ccc(N5CCOCC5)cc4)cc3c2C1`, for which the RP-LC retention time turned out to be 635 s.

For the molecule `O=C(c1ccc(OCC2CCN(C(=O)C3CCC3)CC2)cc1)N1CCCC1`, the RP-LC retention time is 782 s.

Take `Cc1cccc(Nc2nnc(CC(=O)Nc3cc(F)ccc3Cl)s2)c1`: the RP-LC retention time was 872 s.

As for `Cn1c(N2CCCC(C(=O)NCC3CCN(Cc4ccccc4F)CC3)C2)cc(=O)n(C)c1=O` (stereo not given), the RP-LC retention time came to 579 s.

For the molecule `Cn1cc(SCC(=O)Nc2cccc(F)c2)c2ccccc21`, the RP-LC retention time stood at 896 s.

Consider `CCCN1CCCCc2cc(C(=O)N(C)CC(=O)NC)sc21`, for which the RP-LC retention time was 791 s.

On to `COc1cccc([C@@]2(O)CCCC[C@H]2CN(C)C)c1`, for which the RP-LC retention time is 591 s.

The molecule `Cc1ccc(CNC(=O)c2ccc(-c3ccsc3)nc2)cc1` registered an RP-LC retention time of 905 s.

`COc1ccc(-n2nc(N3CCN(C(=O)CC4CCCC4)CC3)ccc2=O)cc1` gave an RP-LC retention time of 800 s.

For the molecule `COC(=O)c1ccc2nc(NC(=O)c3cc(Cl)ccc3Cl)sc2c1`, the RP-LC retention time was 965 s.

Consider `O=S(=O)(Cc1ccc(Cl)cc1)c1ccc(N2CCN(c3ccccn3)CC2)nn1`, for which the RP-LC retention time came to 654 s.

For the molecule `Cc1nc(-c2cccc(NC(=O)CCCn3cnc(-c4ccc(F)cc4)cc3=O)c2)cs1`, the RP-LC retention time was 768 s.
